4 compounds from patent EP0067666A1, “Salts of antimicrobial naphthyridine and quinoline compounds and their production” (priority 1981, dated 1982) can be followed below.

Values after ≈ are worked out from the molar mass of the structure shown.

One assay relates to Strep. pyogenes C-203. Put plainly: Antibacterial activity, MIC. In kind it is cell-based. The following applies: based on content of compound A.
A further assay has as its system Strep. faecalis MGH-2. The assay can be described thus: Antibacterial activity, MIC. It is filed as cell-based. As to conditions: based on content of compound A.
The next assay concerns Entero cloacae MA 2646. Put plainly: Antibacterial activity, MIC. It is filed as cell-based. As to conditions: based on content of compound A.
Another assay concerns Strep. pneumoniae SV-1. The assay can be described thus: Antibacterial activity, MIC. In kind it is cell-based. As to conditions: based on content of compound A.
The subject of another assay is Staph. aureus H 228. Put plainly: Antibacterial activity, MIC. The following applies: based on content of compound A. In kind it is cell-based.
The next assay concerns Klebs. pneumoniae MGH-2. Put plainly: Antibacterial activity, MIC. In kind it is cell-based. The following applies: based on content of compound A.
Another assay relates to E. coli Vogel. The assay can be described thus: Antibacterial activity, MIC. In kind it is cell-based. As to conditions: based on content of compound A.
The next assay deals with Pseudo. aeruginosa UI-18. The assay can be described thus: Antibacterial activity, MIC. It is filed as cell-based. The following applies: based on content of compound A.
Another assay concerns Proteus retgeri M 1771. The assay can be described thus: Antibacterial activity, MIC. In kind it is cell-based. The following applies: based on content of compound A.
The subject of the next assay is Staph. aureus UC-76. Put plainly: Antibacterial activity, MIC. In kind it is cell-based. The following applies: based on content of compound A.
Assay [1] deals with Klebsiella pneumoniae MGH-2. Put plainly: Acute mouse protection test. In kind it is in vivo. As to conditions: single dose given at time of challenge, compound A series.
A further assay deals with Escherichia coli Vogel. The assay can be described thus: Acute mouse protection test. In kind it is in vivo. The following applies: single dose given at time of challenge, compound A series.

With `CCn1cc(C(=O)O)c(=O)c2cc(F)c(N3CCNCC3)cc21` [A Aspartate], the “MIC µg/ml Strep. pyogenes C-203” value against Strep. pyogenes C-203 is 0.8 µg/mL (≈ 2.51 µM). The “MIC µg/ml Strep. faecalis MGH-2” value against Strep. faecalis MGH-2 worked out at 1.6 µg/mL (≈ 5.01 µM). In the assay with Entero cloacae MA 2646, the “MIC µg/ml Entero cloacae MA 2646” value is 0.1 µg/mL (≈ 0.313 µM). In the assay on Strep. pneumoniae SV-1, the “MIC µg/ml Strep. pneumoniae SV-1” value was found to be 1.6 µg/mL (≈ 5.01 µM). Also, the “MIC µg/ml Staph. aureus H 228” value with Staph. aureus H 228 was found to be 0.8 µg/mL (≈ 2.51 µM). Also, in the assay with Klebs. pneumoniae MGH-2, the “MIC µg/ml Klebs. pneumoniae MGH-2” value was found to be 0.2 µg/mL (≈ 0.626 µM). In addition, the “MIC µg/ml E. coli Vogel” value against E. coli Vogel is under 0.1 µg/mL. In addition, the “MIC µg/ml Pseudo. aeruginosa UI-18” value in the assay with Pseudo. aeruginosa UI-18 was under 0.1 µg/mL. In addition, in the assay with Proteus retgeri M 1771, the “MIC µg/ml Proteus retgeri M 1771” value was under 0.1 µg/mL. The “MIC µg/ml Staph. aureus UC-76” value against Staph. aureus UC-76 was under 0.1 µg/mL.
As to `CCn1cc(C(=O)O)c(=O)c2cc(F)c(N3CCNCC3)cc21` [A Galacturo-nate], in the assay with Strep. pyogenes C-203, the “MIC µg/ml Strep. pyogenes C-203” value amounted to 0.8 µg/mL (≈ 2.51 µM). The “MIC µg/ml Strep. faecalis MGH-2” value against Strep. faecalis MGH-2 came to 1.6 µg/mL (≈ 5.01 µM). Also, in the assay on Entero cloacae MA 2646, the “MIC µg/ml Entero cloacae MA 2646” value was 0.1 µg/mL (≈ 0.313 µM). Moreover, the “MIC µg/ml Strep. pneumoniae SV-1” value against Strep. pneumoniae SV-1 was determined as 1.6 µg/mL (≈ 5.01 µM). Besides, the “MIC µg/ml Staph. aureus H 228” value against Staph. aureus H 228 turned out to be 0.8 µg/mL (≈ 2.51 µM). In addition, the “MIC µg/ml Klebs. pneumoniae MGH-2” value in the assay on Klebs. pneumoniae MGH-2 came out at 0.1 µg/mL (≈ 0.313 µM). For the same compound, the “MIC µg/ml E. coli Vogel” value against E. coli Vogel was under 0.1 µg/mL. In addition, in the assay with Pseudo. aeruginosa UI-18, the “MIC µg/ml Pseudo. aeruginosa UI-18” value was determined as 0.1 µg/mL (≈ 0.313 µM). For the same compound, the “MIC µg/ml Proteus retgeri M 1771” value in the assay with Proteus retgeri M 1771 was under 0.1 µg/mL. Further, in the assay on Staph. aureus UC-76, the “MIC µg/ml Staph. aureus UC-76” value is under 0.1 µg/mL.
For the compound `CCn1cc(C(=O)O)c(=O)c2cc(F)c(N3CCNCC3)cc21` [A Gluconate], the “MIC µg/ml Strep. pyogenes C-203” value against Strep. pyogenes C-203 came to 0.8 µg/mL. The “MIC µg/ml Strep. faecalis MGH-2” value against Strep. faecalis MGH-2 was 0.8 µg/mL. In addition, the “Single po Dose PD50 (mg/kg) ± 95% Confidence Limits Klebsiella pneumoniae MGH-2” value in assay [1] (oral) turned out to be 13 ± 6 mg/kg. Also, the “Single sc Dose PD50 (mg/kg) ± 95% Confidence Limits Klebsiella pneumoniae MGH-2” value in assay [1] (subcutaneous) is 1.4 ± 0.3 mg/kg. In the assay on Entero cloacae MA 2646, the “MIC µg/ml Entero cloacae MA 2646” value was determined as 0.2 µg/mL. Moreover, the “MIC µg/ml Strep. pneumoniae SV-1” value in the assay on Strep. pneumoniae SV-1 came out at 1.6 µg/mL. Besides, in the assay on Staph. aureus H 228, the “MIC µg/ml Staph. aureus H 228” value stood at 1.6 µg/mL. Moreover, the “MIC µg/ml Klebs. pneumoniae MGH-2” value against Klebs. pneumoniae MGH-2 is 0.2 µg/mL. Moreover, the “MIC µg/ml E. coli Vogel” value against E. coli Vogel was under 0.1 µg/mL. For the same compound, the “Single po Dose PD50 (mg/kg) ± 95% Confidence Limits Escherichia coli Vogel” value in the assay on Escherichia coli Vogel (oral) is on record as 3.9 ± 0.9 mg/kg. For the same compound, in the assay on Escherichia coli Vogel (subcutaneous), the “Single sc Dose PD50 (mg/kg) ± 95% Confidence Limits Escherichia coli Vogel” value came out at 0.5 ± 0.1 mg/kg. The “MIC µg/ml Pseudo. aeruginosa UI-18” value against Pseudo. aeruginosa UI-18 is 0.2 µg/mL. Further, the “MIC µg/ml Proteus retgeri M 1771” value against Proteus retgeri M 1771 was under 0.1 µg/mL. Further, in the assay with Staph. aureus UC-76, the “MIC µg/ml Staph. aureus UC-76” value amounted to 0.2 µg/mL.
Consider `CCn1cc(C(=O)O)c(=O)c2cc(F)c(N3CCNCC3)cc21` [A Glutamate], for which, in the assay with Strep. pyogenes C-203, the “MIC µg/ml Strep. pyogenes C-203” value was determined as 0.8 µg/mL (≈ 2.51 µM). For the same compound, the “MIC µg/ml Strep. faecalis MGH-2” value in the assay on Strep. faecalis MGH-2 amounted to 1.6 µg/mL (≈ 5.01 µM). Moreover, the “MIC µg/ml Entero cloacae MA 2646” value in the assay with Entero cloacae MA 2646 was under 0.1 µg/mL. Further, the “MIC µg/ml Strep. pneumoniae SV-1” value with Strep. pneumoniae SV-1 came out at 1.6 µg/mL (≈ 5.01 µM). Also, the “MIC µg/ml Staph. aureus H 228” value in the assay with Staph. aureus H 228 amounted to 1.6 µg/mL (≈ 5.01 µM). The “MIC µg/ml Klebs. pneumoniae MGH-2” value with Klebs. pneumoniae MGH-2 is 0.1 µg/mL (≈ 0.313 µM). In addition, the “MIC µg/ml E. coli Vogel” value against E. coli Vogel is under 0.1 µg/mL. In addition, the “MIC µg/ml Pseudo. aeruginosa UI-18” value with Pseudo. aeruginosa UI-18 stood at 0.1 µg/mL (≈ 0.313 µM). Further, in the assay on Proteus retgeri M 1771, the “MIC µg/ml Proteus retgeri M 1771” value was 0.1 µg/mL (≈ 0.313 µM). Also, the “MIC µg/ml Staph. aureus UC-76” value in the assay with Staph. aureus UC-76 was under 0.1 µg/mL.
